Reference: patent US11168073B2, “3,3-difluoroallylamines or salts thereof and pharmaceutical compositions comprising the same” (YUHAN CORPORATION, priority 2018, dated 2021)
Where a name gives a salt, the structure may show the parent alone.

Tests used:
Assay type in all cases: biochemical
[1] = target: T1, recombinant human VAP-1 (Homo sapiens, UniProt Q16853); experiment: Activity evaluation on recombinant human VAP-1 (Amplex Red/HRP-coupled hydrogen peroxide assay, benzylamine substrate); conditions: recombinant human VAP-1; 30 min preincubation at 37° C.; 1 mM benzylamine; read-out: Inhibitory Activity (IC50, nM) human VAP-1
T1 construct: purchased R&D systems
T1 sequence (Q16853 1-763): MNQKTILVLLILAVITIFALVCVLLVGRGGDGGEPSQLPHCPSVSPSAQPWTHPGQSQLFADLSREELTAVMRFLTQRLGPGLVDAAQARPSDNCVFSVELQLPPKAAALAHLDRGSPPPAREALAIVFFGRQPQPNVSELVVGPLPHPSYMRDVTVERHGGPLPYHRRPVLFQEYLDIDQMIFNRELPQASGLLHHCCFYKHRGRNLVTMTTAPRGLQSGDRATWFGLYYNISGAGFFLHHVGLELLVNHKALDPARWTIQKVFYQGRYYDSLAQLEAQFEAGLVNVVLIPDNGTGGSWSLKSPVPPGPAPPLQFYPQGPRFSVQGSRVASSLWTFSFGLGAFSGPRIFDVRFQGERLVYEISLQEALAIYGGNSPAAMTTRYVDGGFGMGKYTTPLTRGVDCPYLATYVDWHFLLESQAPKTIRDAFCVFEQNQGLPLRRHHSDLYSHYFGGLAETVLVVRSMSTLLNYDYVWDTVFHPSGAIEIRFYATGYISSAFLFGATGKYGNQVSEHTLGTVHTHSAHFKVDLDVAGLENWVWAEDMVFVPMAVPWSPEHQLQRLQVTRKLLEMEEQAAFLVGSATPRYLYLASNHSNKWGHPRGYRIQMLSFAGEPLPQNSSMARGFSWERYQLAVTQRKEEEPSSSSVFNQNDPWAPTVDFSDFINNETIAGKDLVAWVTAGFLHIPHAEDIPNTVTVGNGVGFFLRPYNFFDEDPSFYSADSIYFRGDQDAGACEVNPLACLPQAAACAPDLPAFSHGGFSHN
Summary of the method: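 Recombinant human VAP-1 in 50 mM sodium phosphate pH 7.4 preincubated 30 min at 37 °C with compound (8-point 1:3 series, <1% DMSO), then 1 mM benzylamine, 200 uM Amplex Red, 1 U/mL HRP added. H2O2-derived resorufin fluorescence (ex 544/em 590) followed 1–2 h; IC50 from four-parameter fit of rate inhibition.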

[2] = target: T2, recombinant human MAO-A (monoamine oxidase-A) (Homo sapiens, UniProt P21397); experiment: Activity evaluation on recombinant human MAO-A (Amplex Red/HRP-coupled assay, 0.5 mM tyramine substrate); conditions: 0.5 mM tyramine, read-out: Inhibitory Activity (IC50, nM) MAO-A
T2 construct: purchased Sigma-Aldrich
T2 sequence (P21397 1-527): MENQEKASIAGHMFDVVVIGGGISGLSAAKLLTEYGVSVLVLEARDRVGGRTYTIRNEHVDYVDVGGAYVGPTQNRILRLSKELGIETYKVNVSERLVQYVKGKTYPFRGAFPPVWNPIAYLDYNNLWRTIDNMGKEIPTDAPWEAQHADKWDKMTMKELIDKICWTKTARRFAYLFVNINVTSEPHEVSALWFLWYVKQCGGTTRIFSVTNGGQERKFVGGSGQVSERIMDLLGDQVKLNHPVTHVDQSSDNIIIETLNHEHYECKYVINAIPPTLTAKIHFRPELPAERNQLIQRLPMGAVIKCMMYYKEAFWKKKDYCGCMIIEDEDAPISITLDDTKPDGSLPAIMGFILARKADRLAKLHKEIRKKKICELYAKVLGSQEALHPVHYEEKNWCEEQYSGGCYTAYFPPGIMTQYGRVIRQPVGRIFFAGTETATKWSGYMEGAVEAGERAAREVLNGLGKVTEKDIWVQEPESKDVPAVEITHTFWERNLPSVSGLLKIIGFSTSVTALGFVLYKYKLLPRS
Summary of the method: (§1)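 Enzyme was preincubated with compounds (8-point 1:3 series, final DMSO <1%) 30 min at 37 °C in 50 mM sodium phosphate pH 7.4, then given 200 uM Amplex Red and 1 U/mL HRP with substrate. H2O2-derived resorufin fluorescence (ex 544/em 590 nm) was followed over 1–2 h; IC50 came from 4-parameter logistic fits of signal-rate inhibition versus DMSO control.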

[3] = target: T3, recombinant human DAO (diamine oxidase) (Homo sapiens, UniProt P19801); experiment: Activity evaluation on recombinant human DAO (Amplex Red/HRP-coupled assay, 1 mM putrescine substrate); conditions: 1 mM putrescine, read-out: Inhibitory Activity (IC50, nM) DAO
T3 construct: purchased R&D systems
T3 sequence (P19801 20-751): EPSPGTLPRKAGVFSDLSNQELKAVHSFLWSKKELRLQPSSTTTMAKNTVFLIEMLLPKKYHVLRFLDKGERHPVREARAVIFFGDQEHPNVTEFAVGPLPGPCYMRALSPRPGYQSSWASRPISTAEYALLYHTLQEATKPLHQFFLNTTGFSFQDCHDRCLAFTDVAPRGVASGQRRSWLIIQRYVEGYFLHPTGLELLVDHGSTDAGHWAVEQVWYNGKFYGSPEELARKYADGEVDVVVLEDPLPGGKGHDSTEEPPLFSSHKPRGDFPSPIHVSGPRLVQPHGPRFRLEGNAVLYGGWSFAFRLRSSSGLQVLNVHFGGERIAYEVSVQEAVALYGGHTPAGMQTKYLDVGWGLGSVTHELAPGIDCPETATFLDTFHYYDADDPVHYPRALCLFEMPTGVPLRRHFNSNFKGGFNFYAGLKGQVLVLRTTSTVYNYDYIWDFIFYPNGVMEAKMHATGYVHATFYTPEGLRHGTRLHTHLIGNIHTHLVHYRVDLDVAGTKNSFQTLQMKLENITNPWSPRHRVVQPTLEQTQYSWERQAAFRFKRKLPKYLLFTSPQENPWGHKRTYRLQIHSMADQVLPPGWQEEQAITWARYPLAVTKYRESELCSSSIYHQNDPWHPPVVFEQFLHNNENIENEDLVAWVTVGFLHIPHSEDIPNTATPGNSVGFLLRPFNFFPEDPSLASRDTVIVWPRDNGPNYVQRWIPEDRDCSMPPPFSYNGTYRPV
Summary of the method: as §1

[4] = target: T4, recombinant human MAO-B (monoamine oxidase-B) (Homo sapiens, UniProt P27338); experiment: Activity evaluation on recombinant human MAO-B (Amplex Red/HRP-coupled assay, 1 mM benzylamine substrate); conditions: 1 mM benzylamine, read-out: Inhibitory Activity (IC50, nM) MAO-B
T4 construct: purchased Sigma-Aldrich
T4 sequence (P27338 1-520): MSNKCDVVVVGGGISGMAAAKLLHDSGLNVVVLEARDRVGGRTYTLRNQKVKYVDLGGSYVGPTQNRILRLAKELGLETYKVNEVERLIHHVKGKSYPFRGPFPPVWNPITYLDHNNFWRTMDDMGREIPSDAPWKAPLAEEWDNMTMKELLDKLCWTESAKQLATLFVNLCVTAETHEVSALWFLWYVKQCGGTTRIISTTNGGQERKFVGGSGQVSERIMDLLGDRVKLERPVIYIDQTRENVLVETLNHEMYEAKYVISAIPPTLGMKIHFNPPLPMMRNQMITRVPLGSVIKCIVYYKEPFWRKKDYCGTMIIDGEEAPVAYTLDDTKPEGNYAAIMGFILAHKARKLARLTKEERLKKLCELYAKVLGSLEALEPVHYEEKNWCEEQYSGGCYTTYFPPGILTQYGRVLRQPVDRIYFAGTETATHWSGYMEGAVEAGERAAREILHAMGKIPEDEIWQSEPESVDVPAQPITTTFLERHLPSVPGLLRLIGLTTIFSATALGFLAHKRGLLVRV
Summary of the method: as §1

SMILES	IC50 [1]	IC50 [2]	IC50 [3]	IC50 [4]
Cc1cc(-c2cnc(-n3cnn(CC(CN)=C(F)F)c3=O)c(F)c2)cc2c1NC(=O)CC2 [Example 86, 6-[6-[1-[2-(aminomethyl)-3,3-difluoro-allyl]-5-oxo-1,2,4-triazol-4-yl]-5-fluoro-3-pyridyl]-8-methyl-3,4-dihydro-1H-quinolin-2-one Trifluoroacetate]	0.1 nM	> 100000 nM	33 nM	640 nM
CN1C(=O)CCc2cc(-c3cnc(-n4cnn(CC(CN)=C(F)F)c4=O)c(F)c3)ccc21 [Example 87, 6-[6-[1-[2-(aminomethyl)-3,3-difluoro-allyl]-5-oxo-1,2,4-triazol-4-yl]-5-fluoro-3-pyridyl]-1-methyl-3,4-dihydroquinolin-2-one Trifluoroacetate]	0.1 nM	> 100000 nM	22 nM	1100 nM
CCn1cc(-c2cnc(-n3cnn(CC(CN)=C(F)F)c3=O)c(F)c2)cn1 [Example 88, 2-[2-(aminomethyl)-3,3-difluoro-allyl]-4-[5-(1-ethylpyrazol-4-yl)-3-fluoro-2-pyridyl]-1,2,4-triazol-3-one Trifluoroacetate]	0.3 nM	> 100000 nM	230 nM	8200 nM
CS(=O)(=O)c1ccc(-c2cnc(-n3cnn(CC(CN)=C(F)F)c3=O)cn2)cc1 [Example 89, 2-[2-(aminomethyl)-3,3-difluoro-allyl]-4-[5-(4-methylsulfonylphenyl)-pyrazin-2-yl]-1,2,4-triazol-3-one Trifluoroacetate]	0.6 nM	> 100000 nM	2 nM	1900 nM
NCC(Cn1ncn(-c2cnc(-c3ccc(N4CCNCC4)cc3)cn2)c1=O)=C(F)F [Example 90, 2-[2-(aminomethyl)-3,3-difluoro-allyl]-4-[5-(4-piperazin-1-ylphenyl)pyrazin-2-yl]-1,2,4-triazol-3-one Ditrifluoroacetate]	1.3 nM	> 100000 nM	30 nM	> 100000 nM
NCC(Cn1ncn(-c2cnc(-c3ccc(C(F)(F)F)nc3)cn2)c1=O)=C(F)F [Example 91, 2-[2-(aminomethyl)-3,3-difluoro-allyl]-4-[5-[6-(trifluoromethyl)-3-pyridyl]pyrazin-2-yl]-1,2,4-triazol-3-one Trifluoroacetate]	0.5 nM	> 100000 nM	1 nM	200 nM
CN1C(=O)CCc2cc(-c3cnc(-n4cnn(CC(CN)=C(F)F)c4=O)cn3)ccc21 [Example 94, 6-[5-[1-[2-(aminomethyl)-3,3-difluoro-allyl]-5-oxo-1,2,4-triazol-4-yl]pyrazin-2-yl]-1-methyl-3,4-dihydro-1H-quinolin-2-one Trifluoroacetate]	0.2 nM	> 100000 nM	4 nM	860 nM

The next lines start with the values.

IC50 [1]	IC50 [2]	IC50 [3]	IC50 [4]	SMILES
0.2 nM	> 100000 nM	180 nM	130 nM	NCC(Cn1ncn(-c2ncc(-c3ccc4c(c3)OCO4)cc2F)c1=O)=C(F)F [Example 85, 2-[2-(aminomethyl)-3,3-difluoro-allyl]-4-[5-(1,3-benzodioxol-5-yl)-3-fluoro-2-pyridyl]-1,2,4-triazol-3-one Trifluoroacetate]
0.2 nM	> 100000 nM	8 nM	6200 nM	CN(C)c1ccc(-c2cnc(-n3cnn(CC(CN)=C(F)F)c3=O)cn2)cn1 [Example 92, 2-[2-(aminomethyl)-3,3-difluoro-allyl]-4-[5-[6-(dimethylamino)-3-pyridyl]pyrazin-2-yl]-1,2,4-triazol-3-one Trifluoroacetate]
0.3 nM	> 100000 nM	21 nM	50 nM	NCC(Cn1ncn(-c2cnc(-c3ccc4c(c3)OCO4)cn2)c1=O)=C(F)F [Example 93, 2-[2-(aminomethyl)-3,3-difluoro-allyl]-4-[5-(1,3-benzodioxol-5-yl)pyrazin-2-yl]-1,2,4-triazol-3-one Trifluoroacetate]
0.6 nM	> 100000 nM	19 nM	1300 nM	CCn1cc(-c2cnc(-n3cnn(CC(CN)=C(F)F)c3=O)cn2)cn1 [Example 95, 2-[2-(aminomethyl)-3,3-difluoro-allyl]-4-[5-(1-ethylpyrazol-4-yl)pyrazin-2-yl]-1,2,4-triazol-3-one Trifluoroacetate]
13 nM	> 100000 nM	> 100000 nM	220 nM	NCC(Cn1ncn(Cc2ccc(OCc3ccccc3)cc2)c1=O)=C(F)F [Example 96, 2-[2-(aminomethyl)-3,3-difluoro-allyl]-4-[(4-benzyloxyphenyl)methyl]-1,2,4-triazol-3-one Trifluoroacetate]
1.3 nM	> 100000 nM	> 10000 nM	20000 nM	NCC(Cn1ncn(Cc2ccc(Br)s2)c1=O)=C(F)F [Example 97, 2-[2-(aminomethyl)-3,3-difluoro-allyl]-4-[(5-bromo-2-thienyl)methyl]-1,2,4-triazol-3-one Trifluoroacetate]
23 nM	> 100000 nM	18600 nM	13900 nM	NCC(Cn1ncn(Cc2cc(Br)cs2)c1=O)=C(F)F [Example 98, 2-[2-(aminomethyl)-3,3-difluoro-allyl]-4-[(4-bromo-2-thienyl)methyl]-1,2,4-triazol-3-one Trifluoroacetate]
